Test results reported in patent US20120277161A1, “INHIBITION OF MULTIPLE CELL ACTIVATION PATHWAYS” (INTER-K PTY LIMITED, priority 2009, published 2012).
One block for each molecule: values may come before it.

Tests used:
[1] = biological target: human Yes (Homo sapiens, UniProt P07947); assay: Yes kinase activity assay; format: biochemical; conditions: 20 μM
Protocol: In a final reaction volume of 25 μl, human Yes is incubated with the RSKAKNPLYR peptide (SEQ ID No: 6) in 8 mM MOPS buffer pH 7.0, 0.2 mM EDTA, 0.1 mg/ml poly(Glu,Tyr) 4:1, 10 mM Mg acetate and [γ-33P-ATP] (specific activity approx. 500 cpm/pmol). The reaction is initiated by the addition of the MgATP mix, incubated for 40 minutes at room temperature prior to being stopped and kinase activity assessed by scintillation counting again as per the protocol described for c-Src in Example 1.1.

[2] = tested on: DU145 prostate cancer cells; assay: MTT growth/proliferation, DU145 cells; format: cell-based; conditions: 48 hours
Protocol: (§1) In this study, the cells were incubated in the presence of the dendrimer for 48 hours. Cell lines were maintained at 37° C. in a humid atmosphere containing 5% CO2. Cells were passaged at pre-confluent densities using a solution containing 0.05% trypsin and 0.5 mM EDTA (Invitrogen).

[3] = tested on: JNK; assay: JNK activity; format: biochemical; conditions: 20 μM, data not shown
[4] = tested on: MCF-7 breast cancer cells; assay: MTT growth/proliferation, MCF-7 cells; format: cell-based; conditions: 48 hours
Protocol: as §1

[5] = biological target: c-SRC (h) (Homo sapiens, UniProt P12931); assay: c-Src kinase activity assay (cell-free, 33P-ATP); format: biochemical
Protocol: In a final reaction volume of 25 μL, c-SRC (h) (5-10 mU) is incubated with 8 mM MOPS pH 7.0, 0.2 mM EDTA, 250 μM KVEKIGEGTYGVVYK (SEQ ID No. 19) (Cdc2 peptide), 10 mM MgAcetate and [γ-33P-ATP] (specific activity approx. 500 cpm/pmol, concentration as required). The reaction is initiated by the addition of the MgATP mix. After incubation for 40 minutes at room temperature, the reaction is stopped by the addition of 5 μL of a 3% phosphoric acid solution. 10 μL of the reaction is then spotted onto a P30 filtermat and washed three times for 5 minutes in 75 mM phosphoric acid and once in methanol prior to drying and scintillation counting.

[6] = biological target: kinases listed Table 2; assay: Kinase dose response study (kinases listed Table 2); format: biochemical; conditions: range over all kinases of Table 2; read-out: IC50 percentage inhibition of activity for all the kinases
Protocol: In a dose response study, the inhibition of the activity of the kinases listed Table 2 at increasing concentrations of dendrimer Dend 10-10(4)DP (see Example 2.3) was assessed employing the treatment protocols described in Examples 1 to 3. As shown in the table, inhibition of kinase activity was obtained by the dendrimer at all the concentrations tested. The IC50 percentage inhibition of activity for all the kinases was in the range of from 0.25-2.0 μM. The results shown in Table 2 are percentage inhibition relative to controls. Comparative dose results for 1 μM dendrimer Dend 10-10(4) are also shown.

[7] = tested on: MKN45 gastric carcinoma cells; assay: MTT growth/proliferation, MKN45 cells; format: cell-based; conditions: 48 hours
Protocol: as §1

[8] = biological target: FAK (Homo sapiens, UniProt Q05397); assay: FAK activity; format: biochemical; conditions: 20 μM, data not shown
FAK, sequence (Q05397 whole entry, species assumed): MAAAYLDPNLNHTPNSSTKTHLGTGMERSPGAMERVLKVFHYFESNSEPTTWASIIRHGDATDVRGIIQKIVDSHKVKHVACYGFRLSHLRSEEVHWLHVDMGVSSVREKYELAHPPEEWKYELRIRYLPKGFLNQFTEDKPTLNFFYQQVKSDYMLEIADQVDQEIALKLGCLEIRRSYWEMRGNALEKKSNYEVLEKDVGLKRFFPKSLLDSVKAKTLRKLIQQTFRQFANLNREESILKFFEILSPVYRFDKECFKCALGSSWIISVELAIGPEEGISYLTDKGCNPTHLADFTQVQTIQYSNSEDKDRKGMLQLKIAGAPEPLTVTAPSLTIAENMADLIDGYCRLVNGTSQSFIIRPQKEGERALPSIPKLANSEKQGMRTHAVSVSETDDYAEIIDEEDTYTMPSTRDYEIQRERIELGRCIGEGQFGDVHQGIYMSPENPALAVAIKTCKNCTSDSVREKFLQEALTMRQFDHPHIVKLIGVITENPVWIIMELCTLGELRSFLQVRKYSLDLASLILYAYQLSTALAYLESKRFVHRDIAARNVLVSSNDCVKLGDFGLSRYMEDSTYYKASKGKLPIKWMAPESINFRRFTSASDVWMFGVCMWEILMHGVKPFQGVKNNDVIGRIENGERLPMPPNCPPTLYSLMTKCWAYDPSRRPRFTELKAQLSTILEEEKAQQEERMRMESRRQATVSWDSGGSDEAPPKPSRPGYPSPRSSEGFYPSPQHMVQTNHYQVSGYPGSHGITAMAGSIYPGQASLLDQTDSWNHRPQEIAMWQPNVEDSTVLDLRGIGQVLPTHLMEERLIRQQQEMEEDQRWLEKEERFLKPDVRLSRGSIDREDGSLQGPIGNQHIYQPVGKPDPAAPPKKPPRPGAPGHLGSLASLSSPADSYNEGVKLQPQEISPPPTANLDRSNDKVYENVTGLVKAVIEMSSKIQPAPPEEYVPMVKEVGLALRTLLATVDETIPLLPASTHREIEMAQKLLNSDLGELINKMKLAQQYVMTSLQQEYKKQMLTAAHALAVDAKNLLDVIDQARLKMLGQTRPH

[9] = tested on: HT29 human colorectal adenocarcinoma tumour; assay: Inhibition of HT29 tumour growth in a mouse model; format: in vivo, Mouse (Mus musculus) BALB/c nu/nu; conditions: for Tumour volume Delta avg: change from day 0; for dT/dC [%]: versus vehicle
Protocol: HT29 human colorectal adenocarcinoma cells were cultured in RPMI 1640 cell culture medium supplemented with 10% v/v heat inactivated FCS and 50 IU/mL penicillin-streptomycin. The cells were harvested by trypsinisation, washed twice in HBSS and counted. The cells were then resuspended in HBSS to a final concentration of 2×10^7 cells/mL.
Prior to inoculation the skin on the injection site (dorsal right flank) was swabbed with alcohol. The needle was introduced through the skin into the subcutaneous space just below the animal's right shoulder, and 100 μL of cells (2×10^6 cells) were discharged. The treatment of mice began nine days after HT29 cell inoculation, the average tumour volume was 68 mm^3 (average variability of 6.1%).
Body weight and tumour dimensions (length and diameter) were measured for all animals on the first day of treatment (day 0) and then three times per week, including the termination day of the study (Day 24).
Mice were randomized, based on body weight, into two groups of ten mice on Day 0 of the study. The peptide dendrimer Dend 10-10(4) presenting 10 monomer units of the peptide RSKAKNPLYR (SEQ ID No. 6) (see Example 2) was used in this study. The vehicle control (phosphate buffered saline (PBS)) and Dend 10-10(4) dendrimer (20 mg/kg) were each administered by intra-tumoural injection once daily for five consecutive days, beginning on Day 0.
The vehicle control and Dend 10-10(4) dendrimer were administered at a dosing volume of 4.762 mL/kg (100 μL) based on a 21 g mouse. Each animal's body weight was measured immediately prior to dosing. The volume of dosing solution administered to each mouse was calculated and adjusted based on individual body weight.
Tumours were excised from all mice post mortem and weighed. Tumour volume was calculated using the equation:
V (mm^3)=length×diameter^2×π/6
ΔT/ΔC (%) was calculated using the following equation:
ΔT/ΔC %=(ΔvolumeTreatment/ΔVolumeControl)×100
where Δ=change in volume from day 0 to the final measurement day or nominated day of interest.

human Yes, sequence (P07947 whole entry): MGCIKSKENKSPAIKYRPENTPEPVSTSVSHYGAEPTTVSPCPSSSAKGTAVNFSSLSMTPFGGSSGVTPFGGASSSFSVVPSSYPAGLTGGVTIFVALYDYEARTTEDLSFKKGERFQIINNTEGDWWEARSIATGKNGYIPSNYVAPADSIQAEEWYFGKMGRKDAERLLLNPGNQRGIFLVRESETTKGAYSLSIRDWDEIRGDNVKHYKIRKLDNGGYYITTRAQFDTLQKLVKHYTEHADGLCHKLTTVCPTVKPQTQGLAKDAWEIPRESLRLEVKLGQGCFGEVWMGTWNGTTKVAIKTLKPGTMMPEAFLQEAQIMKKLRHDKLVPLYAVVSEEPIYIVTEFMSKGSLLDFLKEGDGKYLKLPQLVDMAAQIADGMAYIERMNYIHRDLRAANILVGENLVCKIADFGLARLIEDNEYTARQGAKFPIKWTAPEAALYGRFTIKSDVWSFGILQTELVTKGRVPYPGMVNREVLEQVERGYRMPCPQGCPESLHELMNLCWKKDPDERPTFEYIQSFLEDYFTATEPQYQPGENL

inhibition of the activity of c-Yes relative to controls [1]: 99% | IC50 [6]: 250 to 2000 nM | effect on activity of FAK [8]: without any effect
Molecule: Dend 10-10(4) whose RSKAKNPLYR peptides are entirely D-amino acids and pegylated with two ethylene glycol units [Dend 10-10(4)DP]
inhibition of growth/proliferation of DU145 cells [2]: inhibited growth/proliferation | effect on activity of JNK [3]: without any effect | inhibition of growth/proliferation of MCF-7 cells [4]: inhibited growth/proliferation | inhibition of c-Src activity compared to peptide RSKAKNPLYR alone [5]: no increase in the inhibition of c-Src activity | inhibition of growth/proliferation of MKN45 cells [7]: inhibited growth/proliferation

Molecule: CC(C)C[C@H](NC(=O)[C@@H]1CCCN1C(=O)[C@H](CC(N)=O)NC(=O)[C@H](CCCCN)NC(=O)[C@H](C)NC(=O)[C@H](CCCCN)NC(=O)[C@H](CO)NC(=O)[C@@H](N)CCCNC(=N)N)C(=O)N[C@@H](Cc1ccc(O)cc1)C(=O)N[C@@H](CCCNC(=N)N)C(=O)NCCCC[C@H](NC(=O)[C@H](CCCCNC(=O)[C@H](CCCCNC(=O)[C@H](CCCNC(=N)N)NC(=O)[C@H](Cc1ccc(O)cc1)NC(=O)[C@H](CC(C)C)NC(=O)[C@@H]1CCCN1C(=O)[C@H](CC(N)=O)NC(=O)[C@H](CCCCN)NC(=O)[C@H](C)NC(=O)[C@H](CCCCN)NC(=O)[C@H](CO)NC(=O)[C@@H](N)CCCNC(=N)N)NC(=O)[C@H](CCCNC(=N)N)NC(=O)[C@H](Cc1ccc(O)cc1)NC(=O)[C@H](CC(C)C)NC(=O)[C@@H]1CCCN1C(=O)[C@H](CC(N)=O)NC(=O)[C@H](CCCCN)NC(=O)[C@H](C)NC(=O)[C@H](CCCCN)NC(=O)[C@H](CO)NC(=O)[C@@H](N)CCCNC(=N)N)NC(=O)[C@H](CCCCNC(=O)[C@H](CCCNC(=N)N)NC(=O)[C@H](Cc1ccc(O)cc1)NC(=O)[C@H](CC(C)C)NC(=O)[C@@H]1CCCN1C(=O)[C@H](CC(N)=O)NC(=O)[C@H](CCCCN)NC(=O)[C@H](C)NC(=O)[C@H](CCCCN)NC(=O)[C@H](CO)NC(=O)[C@@H](N)CCCNC(=N)N)NC(=O)[C@H](CCCNC(=N)N)NC(=O)[C@H](Cc1ccc(O)cc1)NC(=O)[C@H](CC(C)C)NC(=O)[C@@H]1CCCN1C(=O)[C@H](CC(N)=O)NC(=O)[C@H](CCCCN)NC(=O)[C@H](C)NC(=O)[C@H](CCCCN)NC(=O)[C@H](CO)NC(=O)[C@@H](N)CCCNC(=N)N)C(=O)NCCCC[C@H](NC(=O)[C@H](CCCCNC(=O)[C@H](CCCNC(=N)N)NC(=O)[C@H](Cc1ccc(O)cc1)NC(=O)[C@H](CC(C)C)NC(=O)[C@@H]1CCCN1C(=O)[C@H](CC(N)=O)NC(=O)[C@H](CCCCN)NC(=O)[C@H](C)NC(=O)[C@H](CCCCN)NC(=O)[C@H](CO)NC(=O)[C@@H](N)CCCNC(=N)N)NC(=O)[C@H](CCCCNC(=O)[C@H](CCCCNC(=O)[C@H](CCCNC(=N)N)NC(=O)[C@H](Cc1ccc(O)cc1)NC(=O)[C@H](CC(C)C)NC(=O)[C@@H]1CCCN1C(=O)[C@H](CC(N)=O)NC(=O)[C@H](CCCCN)NC(=O)[C@H](C)NC(=O)[C@H](CCCCN)NC(=O)[C@H](CO)NC(=O)[C@@H](N)CCCNC(=N)N)NC(=O)[C@H](CCCNC(=N)N)NC(=O)[C@H](Cc1ccc(O)cc1)NC(=O)[C@H](CC(C)C)NC(=O)[C@@H]1CCCN1C(=O)[C@H](CC(N)=O)NC(=O)[C@H](CCCCN)NC(=O)[C@H](C)NC(=O)[C@H](CCCCN)NC(=O)[C@H](CO)NC(=O)[C@@H](N)CCCNC(=N)N)NC(=O)[C@H](CCCCNC(=O)[C@H](CCCNC(=N)N)NC(=O)[C@H](Cc1ccc(O)cc1)NC(=O)[C@H](CC(C)C)NC(=O)[C@@H]1CCCN1C(=O)[C@H](CC(N)=O)NC(=O)[C@H](CCCCN)NC(=O)[C@H](C)NC(=O)[C@H](CCCCN)NC(=O)[C@H](CO)NC(=O)[C@@H](N)CCCNC(=N)N)NC(=O)[C@H](CCCNC(=N)N)NC(=O)[C@H](Cc1ccc(O)cc1)NC(=O)[C@H](CC(C)C)NC(=O)[C@@H]1CCCN1C(=O)[C@H](CC(N)=O)NC(=O)[C@H](CCCCN)NC(=O)[C@H](C)NC(=O)[C@H](CCCCN)NC(=O)[C@H](CO)NC(=O)[C@@H](N)CCCNC(=N)N)C(=O)NCCC(N)=O [Dend 10-10(4)]
Tumour volume Average ([9]; 20 mg/kg intra-tumoural once daily for five days, Day 0): 68.0 mm^3 | Tumour volume Average ([9]; 20 mg/kg intra-tumoural once daily for five days, Day 2): 136.6 mm^3 | Tumour volume Average ([9]; 20 mg/kg intra-tumoural once daily for five days, Day 4): 211.9 mm^3 | Tumour volume Average ([9]; 20 mg/kg intra-tumoural once daily for five days, Day 7): 248.6 mm^3 | Tumour volume Average ([9]; 20 mg/kg intra-tumoural once daily for five days, Day 11): 300.9 mm^3 | Tumour volume Average ([9]; 20 mg/kg intra-tumoural once daily for five days, Day 14): 323.9 mm^3 | Tumour volume Average ([9]; 20 mg/kg intra-tumoural once daily for five days, Day 16): 391.0 mm^3 | Tumour volume Average ([9]; 20 mg/kg intra-tumoural once daily for five days, Day 18): 476.9 mm^3 | Tumour volume Average ([9]; 20 mg/kg intra-tumoural once daily for five days, Day 21): 601.5 mm^3 | Tumour volume Average ([9]; 20 mg/kg intra-tumoural once daily for five days, Day 24): 702.1 mm^3 | average tumour weight at the end of the study ([9]; 20 mg/kg intra-tumoural once daily for five days, Day 24, control 0.962 g): 0.437 g | tumour growth compared to the vehicle only control ([9]; FIG. 16): markedly inhibited | Tumour volume Delta avg ([9]; Day 0): 0.0 mm^3 | Tumour volume Delta avg ([9]; Day 2): 68.6 mm^3 | Tumour volume Delta avg ([9]; Day 4): 144.0 mm^3 | Tumour volume Delta avg ([9]; Day 7): 180.6 mm^3 | Tumour volume Delta avg ([9]; Day 11): 232.9 mm^3 | Tumour volume Delta avg ([9]; Day 14): 255.9 mm^3 | Tumour volume Delta avg ([9]; Day 16): 323.1 mm^3 | Tumour volume Delta avg ([9]; Day 18): 408.9 mm^3 | Tumour volume Delta avg ([9]; Day 21): 598.7 mm^3 | Tumour volume Delta avg ([9]; Day 24): 710.4 mm^3 | dT/dC [%] ([9]; Day 0): 100.0% | dT/dC [%] ([9]; Day 2): 134.3% | dT/dC [%] ([9]; Day 4): 102.0% | dT/dC [%] ([9]; Day 7): 68.1% | dT/dC [%] ([9]; Day 11): 58.0% | dT/dC [%] ([9]; Day 14): 44.6% | dT/dC [%] ([9]; Day 16): 45.2% | dT/dC [%] ([9]; Day 18): 47.1% | dT/dC [%] ([9]; Day 21): 55.7% | dT/dC [%] ([9]; Day 24): 54.5%
